Reference: patent publication EP0176444A1, “Process for the preparation of derivatives of 4H-1,2,4-triazole, triazoles so obtained, their use as medicaments, and pharmaceutical compositons containing them” (ROUSSEL-UCLAF, priority 1984, dated 1986)

Key:
[1] = system: arthrite chronique à l'adjuvant; assay: Anti-inflammatory activity: chronic adjuvant arthritis (preventive treatment); assay type: in vivo, rat
Description: L'injection d'adjuvant du type Freund dans une patte postérieure provoque, chez le rat, l'apparition rapide d'une lésion inflammatoire primaire dans cette patte, puis, après un temps de latence de 13 à 15 jours, le déclenchement d'une arthrite secondaire affectant notamment l'autre patte postérieure. Le test est pratiqué sur des rats mâles âgés de 42 à 50 jours, qui reçoivent en injection intraplantaire, 0,1 ml d'adjuvant de type "Freund" (suspension dans l'huile de vaseline de 6 mg par ml de mycobacterium butyricum tués).
Les animaux reçoivent le produit étudié, par voie orale, du jour 0 (jour de l'injection de l'adjuvant) jusqu'à la veille du sacrifice, pratiqué le jour 17. Des animaux témoins arthritiques, des animaux témoins normaux ne reçoivent que le véhicule. Les critères d'appréciation de l'activité des substances étudiées sont les augmentations de volume des pattes postérieures non injectées (inflammation secondaire) par rapport au volume moyen des pattes correspondantes de témoins normaux.
On détermine la DA50, c'est-à-dire la dose qui diminue de 50% les augmentations de volume des pattes postérieures des animaux traités par rapport aux animaux témoins.

[2] = system: mouvements répétés d'étirement et de torsion; assay: Analgesic activity: acetic acid-induced stretching (writhing) test, Koster; assay type: in vivo, souris; details: 0.25 h; mouse, oral route half an hour before i.p. acetic acid 100 mg/kg; stretches counted for 15 min; dose giving 50 % decrease in number of stretches vs controls; read-out: DA50 (the source's name)
Text: Le test employé est basé sur le fait signalé par R. KOSTER et Coll., (Fed. Proc. 1959, 16412) selon lequel l'injection intrapéritonéale d'acide acétique provoque, chez la souris, des mouvements répétés d'étirement et de torsion pouvant persister pendant plus de six heures. Les analgésiques préviennent ou diminuent ce syndrome qui peut être considéré comme l'extériorisation d'une douleur abdominale diffuse. On utilise une solution d'acide acétique à 1 % dans l'eau. La dose déclenchant le syndrome est dans ces conditions de 0,01 cm^3/g, soit 100 mg/kg d'acide acétique.
Le produit étudié est administré par voie buccale une demi-heure avant l'injection d'acide acétique, les souris étant à jeun depuis la veille de l'expérience.
Les étirements sont observés et comptés pour chaque souris pendant une période d'observation de quinze minutes commençant aussitôt après l'injection d'acide acétique.
Les résultats sont exprimés au moyen de la DA50, c'est-à-dire la dose qui permet d'obtenir une diminution de 50 % du nombre des étirements par rapport aux animaux témoins.

SMILES | activité anti-inflammatoire ([1]; general statement in the description: models of chronic inflammation) | ED50 [2] | activité anti-inflammatoire (arthrite chronique à l'adjuvant) ([1]; male rats, oral route from day 0 to the day before sacrifice on day 17, volume increase of non-injected hind paws (secondary inflammation), result given in words only)
COc1ccc(-n2c(-c3ccc(N(C)C)cc3)nnc2C(C)O)cc1 (stereo not drawn) [5-/4-(diméthylamino) phényl/ 4-(4-méthoxyphényl)α-méthyl 4H-1,2,4-triazole 3-méthanol] | une certaine activité anti-infiammatoire | – | –
COc1ccc(-n2c(-c3ccc(N(C)C)cc3)nnc2[C@H](C)O)cc1 [Exemple 11, 5-/4-(diméthylamino)-phényl/ 4-(4-méthoxyphényl)α-méthyl 4H-1,2,4-triazol-3-méthanol] | – | 4 mg/kg | activité notable
